In patent US20260297081A1, “COMPOUNDS AND METHODS OF TREATING CANCERS” (Cullgen Inc., priority 2023, published 2026):

Target: CDK4 (Homo sapiens, UniProt P11802+Q16531)
Assay: CDK4 percentage degradation in Calu-1 cells (Table 6)
Type: cell-based
Set-up: Cells that express cyclin D1-3 and CDK4/6 proteins were treated with heterobifunctional compounds; endogenous in cells; host or cells: Calu-1
Settings: 16 hours; for inhibition at 0.04 µM: 40 nM; for inhibition at 0.2 µM: 200 nM
How it was run: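 Percentage degradation of Cyclin D1 and CDK4 derived from densitometry of ECL Western blots on lysates of Calu-1 cells. Treatment was 16 h with compound at either 40 nM or 200 nM.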

Chain of CDK4 (P11802 2-303 limits assumed): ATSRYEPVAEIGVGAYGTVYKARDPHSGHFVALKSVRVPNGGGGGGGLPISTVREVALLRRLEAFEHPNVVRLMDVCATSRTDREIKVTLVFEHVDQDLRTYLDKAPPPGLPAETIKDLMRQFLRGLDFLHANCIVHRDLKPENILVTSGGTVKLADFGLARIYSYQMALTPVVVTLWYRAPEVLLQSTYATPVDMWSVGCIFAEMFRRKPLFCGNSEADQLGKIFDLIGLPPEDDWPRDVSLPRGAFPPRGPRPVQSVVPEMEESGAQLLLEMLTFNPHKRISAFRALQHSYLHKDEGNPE
Chain of CDK4 (P24385 whole entry partner): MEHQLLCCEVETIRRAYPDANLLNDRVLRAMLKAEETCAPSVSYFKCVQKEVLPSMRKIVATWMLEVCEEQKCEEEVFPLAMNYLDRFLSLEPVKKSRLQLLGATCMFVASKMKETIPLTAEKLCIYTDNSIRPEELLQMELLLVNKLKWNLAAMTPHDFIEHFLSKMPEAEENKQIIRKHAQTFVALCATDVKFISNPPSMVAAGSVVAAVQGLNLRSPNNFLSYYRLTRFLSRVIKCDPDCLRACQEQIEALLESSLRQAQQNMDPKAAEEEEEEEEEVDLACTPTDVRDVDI
Chain of CDK4 (Q16531 2-1140 limits assumed): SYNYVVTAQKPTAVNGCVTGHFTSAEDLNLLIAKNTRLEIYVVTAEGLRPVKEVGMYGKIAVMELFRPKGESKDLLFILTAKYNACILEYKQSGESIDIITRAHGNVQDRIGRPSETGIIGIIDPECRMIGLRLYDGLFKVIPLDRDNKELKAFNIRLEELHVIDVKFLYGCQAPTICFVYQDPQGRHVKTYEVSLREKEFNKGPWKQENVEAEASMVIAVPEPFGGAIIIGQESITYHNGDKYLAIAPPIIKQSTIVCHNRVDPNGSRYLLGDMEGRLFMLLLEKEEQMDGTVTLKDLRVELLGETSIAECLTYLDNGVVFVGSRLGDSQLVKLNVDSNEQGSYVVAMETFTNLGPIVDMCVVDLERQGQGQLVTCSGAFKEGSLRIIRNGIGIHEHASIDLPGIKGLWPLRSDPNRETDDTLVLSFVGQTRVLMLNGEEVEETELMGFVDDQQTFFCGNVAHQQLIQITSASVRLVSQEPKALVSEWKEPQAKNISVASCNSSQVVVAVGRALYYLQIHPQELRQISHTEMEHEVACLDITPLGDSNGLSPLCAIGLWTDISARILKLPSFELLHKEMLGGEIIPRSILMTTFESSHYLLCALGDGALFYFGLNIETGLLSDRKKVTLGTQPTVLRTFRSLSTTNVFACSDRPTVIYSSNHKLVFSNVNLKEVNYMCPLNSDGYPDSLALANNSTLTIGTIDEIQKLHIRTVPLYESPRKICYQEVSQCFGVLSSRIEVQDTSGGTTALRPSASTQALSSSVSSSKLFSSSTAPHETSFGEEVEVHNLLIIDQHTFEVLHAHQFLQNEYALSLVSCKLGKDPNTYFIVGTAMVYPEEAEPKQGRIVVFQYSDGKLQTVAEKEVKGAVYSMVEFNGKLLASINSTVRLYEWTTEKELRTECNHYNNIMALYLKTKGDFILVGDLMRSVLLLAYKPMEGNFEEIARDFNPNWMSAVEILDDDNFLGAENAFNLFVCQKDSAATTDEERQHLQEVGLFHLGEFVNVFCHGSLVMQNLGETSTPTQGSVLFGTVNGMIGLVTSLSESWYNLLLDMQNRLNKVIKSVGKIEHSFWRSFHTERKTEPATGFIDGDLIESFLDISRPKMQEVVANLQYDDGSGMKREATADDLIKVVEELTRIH

inhibition at 0.04 µM | inhibition at 0.2 µM | Compound
< 30% | < 30% | CNc1ccc(C(=O)Nc2nc(C3CC3)ccc2C)c(NCCCCCNC(=O)CN2CCN(c3ccc(Nc4ncc5c(C)c(C(C)=O)c(=O)n(C6CCCC6)c5n4)nc3)CC2)n1 [CPD-61, 2-((5-(2-(4-(6-((6-Acetyl-8-cyclopentyl-5-methyl-7-oxo-7,8-dihydropyrido[2,3-d]pyrimidin-2-yl)amino)pyridin-3-yl)piperazin-1-yl)acetamido)pentyl)amino)-N-(6-cyclopropyl-3-methylpyridin-2-yl)-6-(methylamino)nicotinamide]
< 30% | < 30% | CNc1ccc(C(=O)NC2CC(N(C)C)C2)c(NCCCCCNC(=O)CN2CCN(c3ccc(Nc4ncc5c(C)c(C(C)=O)c(=O)n(C6CCCC6)c5n4)nc3)CC2)n1 (centres unmarked) [CPD-64, 2-((5-(2-(4-(6-((6-Acetyl-8-cyclopentyl-5-methyl-7-oxo-7,8-dihydropyrido[2,3-d]pyrimidin-2-yl)amino)pyridin-3-yl)piperazin-1-yl)acetamido)pentyl)amino)-N-(3-(dimethylamino)cyclobutyl)-6-(methylamino)nicotinamide]
< 30% | < 30% | CNc1ccc(C(=O)NC2CC(CN(C)C)C2)c(NCCCCCNC(=O)CN2CCN(c3ccc(Nc4ncc5c(C)c(C(C)=O)c(=O)n(C6CCCC6)c5n4)nc3)CC2)n1 (centres unmarked) [CPD-65, 2-((5-(2-(4-(6-((6-Acetyl-8-cyclopentyl-5-methyl-7-oxo-7,8-dihydropyrido[2,3-d]pyrimidin-2-yl)amino)pyridin-3-yl)piperazin-1-yl)acetamido)pentyl)amino)-N-(3-((dimethylamino)methyl)cyclobutyl)-6-(methylamino)nicotinamide]
< 30% | < 30% | CNc1ccc(C(=O)NC2CC3(C2)CC(N(C)C)C3)c(NCCCCCNC(=O)CN2CCN(c3ccc(Nc4ncc5c(C)c(C(C)=O)c(=O)n(C6CCCC6)c5n4)nc3)CC2)n1 (centres unmarked) [CPD-67, 2-((5-(2-(4-(6-((6-Acetyl-8-cyclopentyl-5-methyl-7-oxo-7,8-dihydropyrido[2,3-d]pyrimidin-2-yl)amino)pyridin-3-yl)piperazin-1-yl)acetamido)pentyl)amino)-N-(6-(dimethylamino)spiro[3.3]heptan-2-yl)-6-(methylamino)nicotinamide]
30 to 50% | 50 to 80% | CC(=O)c1c(C)c2cnc(Nc3ccc(N4CCN(CC(=O)NCCCCCNc5nc(C(F)(F)F)ccc5C(=O)Nc5ccc(N(C)C)nn5)CC4)cn3)nc2n(C2CCCC2)c1=O [CPD-68, 2-((5-(2-(4-(6-((6-Acetyl-8-cyclopentyl-5-methyl-7-oxo-7,8-dihydropyrido[2,3-d]pyrimidin-2-yl)amino)pyridin-3-yl)piperazin-1-yl)acetamido)pentyl)amino)-N-(6-(dimethylamino)pyridazin-3-yl)-6-(trifluoromethyl)nicotinamide]
30 to 50% | 50 to 80% | CNc1ccc(C(=O)Nc2ccc3c(n2)CCC3)c(NC2CC3(CC(NC(=O)CN4CCN(c5ccc(Nc6ncc7c(C)c(C(C)=O)c(=O)n(C8CCCC8)c7n6)nc5)CC4)C3)C2)n1 (centres unmarked) [CPD-69, 2-((6-(2-(4-(6-((6-Acetyl-8-cyclopentyl-5-methyl-7-oxo-7,8-dihydropyrido[2,3-d]pyrimidin-2-yl)amino)pyridin-3-yl)piperazin-1-yl)acetamido)spiro[3.3]heptan-2-yl)amino)-N-(6,7-dihydro-5H-cyclopenta[b]pyridin-2-yl)-6-(methylamino)nicotinamide]
50 to 80% | 50 to 80% | CNc1ccc(C(=O)Nc2cc(C)n(C)n2)c(NC2CC3(CC(NC(=O)CN4CCN(c5ccc(Nc6ncc7c(C)c(C(C)=O)c(=O)n(C8CCCC8)c7n6)nc5)CC4)C3)C2)n1 (centres unmarked) [CPD-70, 2-((6-(2-(4-(6-((6-Acetyl-8-cyclopentyl-5-methyl-7-oxo-7,8-dihydropyrido[2,3-d]pyrimidin-2-yl)amino)pyridin-3-yl)piperazin-1-yl)acetamido)spiro[3.3]heptan-2-yl)amino)-N-(1,5-dimethyl-1H-pyrazol-3-yl)-6-(methylamino)nicotinamide]
< 30% | < 30% | CNc1ccc(C(=O)N(C)c2ccc(N(C)C)nn2)c(NCCCCCNC(=O)CN2CCN(c3ccc(Nc4ncc5c(C)c(C(C)=O)c(=O)n(C6CCCC6)c5n4)nc3)CC2)n1 [CPD-71, 2-((5-(2-(4-(6-((6-acetyl-8-cyclopentyl-5-methyl-7-oxo-7,8-dihydropyrido[2,3-d]pyrimidin-2-yl)amino)pyridin-3-yl)piperazin-1-yl)acetamido)pentyl)amino)-N-(6-(dimethylamino)pyridazin-3-yl)-N-methyl-6-(methylamino)nicotinamide]
50 to 80% | > 80% | CNc1ccc(C(=O)Nc2cccc(C3CC3)n2)c(NC2CC3(CC(NC(=O)CN4CCN(c5ccc(Nc6ncc7c(C)c(C(C)=O)c(=O)n(C8CCCC8)c7n6)nc5)CC4)C3)C2)n1 (centres unmarked) [CPD-72, 2-((6-(2-(4-(6-((6-Acetyl-8-cyclopentyl-5-methyl-7-oxo-7,8-dihydropyrido[2,3-d]pyrimidin-2-yl)amino)pyridin-3-yl)piperazin-1-yl)acetamido)spiro[3.3]heptan-2-yl)amino)-N-(6-cyclopropylpyridin-2-yl)-6-(methylamino)nicotinamide]
< 30% | < 30% | CNc1ccc(C(=O)Nc2ccc(C3CC3)nc2)c(NC2CC3(CC(NC(=O)CN4CCN(c5ccc(Nc6ncc7c(C)c(C(C)=O)c(=O)n(C8CCCC8)c7n6)nc5)CC4)C3)C2)n1 (centres unmarked) [CPD-74, 2-((6-(2-(4-(6-((6-Acetyl-8-cyclopentyl-5-methyl-7-oxo-7,8-dihydropyrido[2,3-d]pyrimidin-2-yl)amino)pyridin-3-yl)piperazin-1-yl)acetamido)spiro[3.3]heptan-2-yl)amino)-N-(6-cyclopropylpyridin-3-yl)-6-(methylamino)nicotinamide]
< 30% | 30 to 50% | CNc1ccc(C(=O)Nc2cccc(C(C)C)n2)c(NC2CC3(CC(NC(=O)CN4CCN(c5ccc(Nc6ncc7c(C)c(C(C)=O)c(=O)n(C8CCCC8)c7n6)nc5)CC4)C3)C2)n1 (centres unmarked) [CPD-76, 2-((6-(2-(4-(6-((6-Acetyl-8-cyclopentyl-5-methyl-7-oxo-7,8-dihydropyrido[2,3-d]pyrimidin-2-yl)amino)pyridin-3-yl)piperazin-1-yl)acetamido)spiro[3.3]heptan-2-yl)amino)-N-(6-isopropylpyridin-2-yl)-6-(methylamino)nicotinamide]
< 30% | < 30% | CNc1ccc(C(=O)Nc2ccc(=O)[nH]n2)c(NCCCCCNC(=O)CN2CCN(c3ccc(Nc4ncc5c(C)c(C(C)=O)c(=O)n(C6CCCC6)c5n4)nc3)CC2)n1 [CPD-77, 2-((5-(2-(4-(6-((6-Acetyl-8-cyclopentyl-5-methyl-7-oxo-7,8-dihydropyrido[2,3-d]pyrimidin-2-yl)amino)pyridin-3-yl)piperazin-1-yl)acetamido)pentyl)amino)-6-(methylamino)-N-(6-oxo-1,6-dihydropyridazin-3-yl)nicotinamide]
50 to 80% | 50 to 80% | CNc1ccc(C(=O)Nc2ccc(N(C)C)nn2)c(NC2CC3(CC(NCC(=O)N4CCN(c5ccc(Nc6ncc7c(C)c(C(C)=O)c(=O)n(C8CCCC8)c7n6)nc5)CC4)C3)C2)n1 (centres unmarked) [CPD-78, 2-((6-((2-(4-(6-((6-Acetyl-8-cyclopentyl-5-methyl-7-oxo-7,8-dihydropyrido[2,3-d]pyrimidin-2-yl)amino)pyridin-3-yl)piperazin-1-yl)-2-oxoethyl)amino)spiro[3.3]heptan-2-yl)amino)-N-(6-(dimethylamino)pyridazin-3-yl)-6-(methylamino)nicotinamide]
30 to 50% | 30 to 50% | CNc1ccc(C(=O)Nc2ccc(N(C)C)nn2)c(NC2CC3(CC(CCC(=O)N4CCN(c5ccc(Nc6ncc7c(C)c(C(C)=O)c(=O)n(C8CCCC8)c7n6)nc5)CC4)C3)C2)n1 (centres unmarked) [CPD-82, 2-((6-(3-(4-(6-((6-Acetyl-8-cyclopentyl-5-methyl-7-oxo-7,8-dihydropyrido[2,3-d]pyrimidin-2-yl)amino)pyridin-3-yl)piperazin-1-yl)-3-oxopropyl)spiro[3.3]heptan-2-yl)amino)-N-(6-(dimethylamino)pyridazin-3-yl)-6-(methylamino)nicotinamide]
< 30% | 30 to 50% | CNc1ccc(C(=O)Nc2ccc(N(C)C)nn2)c(NC2CC3(CC(CCCN4CCN(c5ccc(Nc6ncc7c(C)c(C(C)=O)c(=O)n(C8CCCC8)c7n6)nc5)CC4)C3)C2)n1 (centres unmarked) [CPD-83, 2-((6-(3-(4-(6-((6-Acetyl-8-cyclopentyl-5-methyl-7-oxo-7,8-dihydropyrido[2,3-d]pyrimidin-2-yl)amino)pyridin-3-yl)piperazin-1-yl)propyl)spiro[3.3]heptan-2-yl)amino)-N-(6-(dimethylamino)pyridazin-3-yl)-6-(methylamino)nicotinamide]
< 30% | < 30% | CNc1ccc(C(=O)Nc2ccnc(C3CC3)c2)c(NC2CC3(CC(NC(=O)CN4CCN(c5ccc(Nc6ncc7c(C)c(C(C)=O)c(=O)n(C8CCCC8)c7n6)nc5)CC4)C3)C2)n1 (centres unmarked) [CPD-86, 2-((6-(2-(4-(6-((6-Acetyl-8-cyclopentyl-5-methyl-7-oxo-7,8-dihydropyrido[2,3-d]pyrimidin-2-yl)amino)pyridin-3-yl)piperazin-1-yl)acetamido)spiro[3.3]heptan-2-yl)amino)-N-(2-cyclopropylpyridin-4-yl)-6-(methylamino)nicotinamide]
